Assay: Concentrations of chemopreventive compounds and metabolites in dog serum by LC-MS/MS
Assay type: in vivo
Experimental: Serum was isolated from whole blood obtained during the two phases of the trial and analysed by LC-MS/MS.
Whole blood (6 ml) was collected from each canine subject at the end of the first and second phases of the study. Blood was obtained by venipuncture from either the cephalic or jugular vein (typically with an 18-20 gauge needle attached to a 10 ml syringe). Manual restraint and aseptic techniques were used. The blood from each dog was placed in labelled collection tubes (2 ml in lavender EDTA collection tubes, 1 ml in green lithium heparin collection tubes, and 3 ml in red silicone coated tubes). The lavender tubes were inverted and used to run Complete Blood Counts (CBC) and for isolation of lymphocytes, the green tubes were inverted and used to run Comprehensive Chemistry Blood Profiles (CCBP), and the blood within the red tubes were allowed to clot, and then centrifuged for 15 min at 3400 rpm to obtain serum. The serum was frozen prior to analysis by LC-MS/MS. The CBC and CCBPs were run on Abaxis™ VetScan machines, particularly the VS2 and HMS.
Liquid-liquid extraction was used to prepare dog serum for mass spectrometric analysis. Briefly, 300 μl of serum was mixed with 900 μl of ice-cold acetonitrile. Each sample was vortex mixed for 20 sec and then centrifuged for 10 min at 13,000×g. The supernatant was removed and evaporated to dryness under a stream of nitrogen, and each extract was reconstituted in 100 μl of acetonitrile/water (20:80, v/v) prior to analysis using LC-MS/MS.
Both instruments were equipped with negative ion electrospray and interfaced to Shimadzu HPLC systems (Prominence Ark. or Nexera, respectively). A Waters (Milford, Mass.) XBridge C18 column (2.1×100 mm; 2.5 μm) was used for chromatographic separations. The solvent system consisted of a 5-min linear gradient from 10% to 90% acetonitrile in water at a flow rate of 400 μl/min. The injection volume was 10 μl.
For quantitative analysis, selected reaction monitoring (SRM) was used with collision-induced dissociation and argon as the collision gas. Deprotonated molecules of each analyte were used as precursor ions, and the SRM transitions of the two most abundant product ions were selected as quantifiers and qualifiers, respectively. In some cases, only one SRM transition (quantifier) was used due to the low abundances of other fragment ions. […] The SRM transitions for genistein were m/z 269 to 89 and m/z 269 to 187, and the SRM transitions for genistein glucuronide and genistein sulfate were m/z 445 to 269 and m/z 349 to 269, respectively. Quercetin was measured using the SRM transitions of m/z 301 to 151 and m/z 301 to 179, and its glucuronide and sulfate metabolites were monitored using the transitions of m/z 477 to 301 and m/z 381 to 301, respectively. Synthetic isopentyl naringenin was used as an internal standard (SRM transition m/z 341 to 119).

| Structure (SMILES) | detection in dog serum (in words) (dog, in vivo) | concentration at 3 weeks (dog, in vivo) [ng/mL] | further results |
| --- | --- | --- | --- |
| O=c1oc2c(O)c(O)cc3c(=O)oc4c(O)c(O)cc1c4c23 [Ellagic acid] | No ellagic acid or curcumin was detected in serum |  |  |
| COc1cc(/C=C/C(=O)CC(=O)/C=C/c2ccc(O[C@@H]3O[C@H](C(=O)O)[C@@H](O)[C@H](O)[C@H]3O)c(OC)c2)ccc1O [Curcumin glucuronide] | detected at low levels in serum of two dogs |  |  |
| Oc1ccc(C=Cc2cc(O)cc(O)c2)cc1 [Resveratrol] |  | 19.3 ± 11 |  |
| O=c1c(-c2ccc(O)cc2)coc2cc(O)cc(O)c12 [Genistein] |  |  | detection in dog serum (in words) (second phase, after 3 weeks of two biscuits/day): no unconjugated genistein was detected |
| O=S(=O)(O)Oc1cc(O)cc(C=Cc2ccc(O)cc2)c1 [resveratrol-3-sulfate] | most abundant form of resveratrol in dog serum |  |  |
| O=c1c(O)c(-c2ccc(O)c(O)c2)oc2cc(O)cc(O)c12 [Quercetin] |  |  | Concentration in serum, Second phase (dog, in vivo, 3 weeks): 2 ± 1 ng/mL |
| O=S(=O)(O)Oc1cc(O)cc(/C=C\c2ccc(O)cc2)c1 [cis-Resveratrol-3-sulfate] |  | 13.6 ± 5.27 |  |
| O=S(=O)(O)Oc1ccc(/C=C/c2cc(O)cc(O)c2)cc1 [trans-Resveratrol-4′-sulfate] |  | 44.4 ± 12.2 |  |

— patent publication US11026917B2, “Antioxidative stress compositions, methods of preparing and uses thereof” (priority 2016, dated 2021)
